For this assay, the target named is T1, human HPK1 (MAP4K1) (Homo sapiens, UniProt Q92918).
T1 construct: Recombinant human HPK1 kinase domain was obtained from ThermoFisher (Cat. #PV6357) and SignalChem (Cat. #M23-11G); purchased ThermoFisher; SignalChem PV6357; M23-11G
T1 sequence (Q92918 17-274 limits assumed): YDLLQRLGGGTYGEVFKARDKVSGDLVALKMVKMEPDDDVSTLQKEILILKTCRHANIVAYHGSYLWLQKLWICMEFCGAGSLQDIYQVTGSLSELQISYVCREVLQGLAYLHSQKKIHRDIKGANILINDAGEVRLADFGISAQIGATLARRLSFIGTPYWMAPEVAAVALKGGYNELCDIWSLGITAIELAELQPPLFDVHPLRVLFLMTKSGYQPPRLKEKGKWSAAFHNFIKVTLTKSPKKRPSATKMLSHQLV
Kind of assay: Biochemical assay for activity against HPK1 (ADP-Glo, MBP substrate). Particulars: recombinant human HPK1 kinase domain, 1 nM enzyme, ADP-Glo luminescence. In a few lines: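 IC50s come from ADP-Glo luminescence after a 2 h room-temperature reaction phosphorylating MBP in the presence of ATP. Compound was first preincubated 15 min with 1 nM HPK1 kinase domain, human recombinant. Buffer: 50 mM HEPES pH 7.5, 150 mM NaCl, 3 mM TCEP, 10 mM MgCl2, 0.005% Tween-20, 0.01% BSA.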
In general terms: In ADP-Glo the light output rises with the ADP produced.

Where a name gives a salt, the structure may show the parent alone.

For orientation: IC50 means the concentration needed to halve the response being measured. In the case of `COc1cc2c(cc1Nc1ncc3cnn(C[C@@H]4[C@@H]5C[C@@H]5CN4C(C)=O)c3n1)CN(C)CC2` [Example 137, 1-((1R,2S,5S)-2-((6-((6-methoxy-2-methyl-1,2,3,4-tetrahydroisoquinolin-7-yl)amino)-1H-pyrazolo[3,4-d]pyrimidin-1-yl)methyl)-3-azabicyclo[3.1.0]hexan-3-yl)ethan-1-one], the 50% inhibitory concentration (IC50) is below 100 nM. As to `COc1cc2c(cc1Nc1ncc3cnn([C@H]4CCC[C@H](C(=O)O)C4)c3n1)CN(C)CC2` (racemic) [Example 28, rac-(1S,3S)-3-(6-((6-methoxy-2-methyl-1,2,3,4-tetrahydroisoquinolin-7-yl)amino)-1H-pyrazolo[3,4-d]pyrimidin-1-yl)cyclohexane-1-carboxylic acid], the IC50 is below 100 nM. In the case of `COc1cc2c(cc1Nc1ncc3cnn(C[C@H]4CCCN4C(C)=O)c3n1)CN(C)CC2` [Example 117, (R)-1-(2-((6-((6-methoxy-2-methyl-1,2,3,4-tetrahydroisoquinolin-7-yl)amino)-1H-pyrazolo[3,4-d]pyrimidin-1-yl)methyl)pyrrolidin-1-yl)ethan-1-one trifluoroacetate], the IC50 was below 100 nM.

For `COc1cc2c(cc1Nc1ncc3cnn(C[C@H]4CC[C@H](O)CC4)c3n1)CN(C)CC2` [Example 199, (trans)-4-((6-((6-methoxy-2-methyl-1,2,3,4-tetrahydroisoquinolin-7-yl)amino)-1H-pyrazolo[3,4-d]pyrimidin-1-yl)methyl)cyclohexan-1-ol hydrochloride], the IC50 was below 100 nM. As for `COc1cc2c(cc1Nc1ncc3cnn(C[C@@H]4[C@@H](C)[C@H](F)CN4C(C)=O)c3n1)CN(C)CC2` [Example 191, 1-((2S,3R,4S)-4-fluoro-2-((6-((6-methoxy-2-methyl-1,2,3,4-tetrahydroisoquinolin-7-yl)amino)-1H-pyrazolo[3,4-d]pyrimidin-1-yl)methyl)-3-methylpyrrolidin-1-yl)ethan-1-one], the IC50 is below 100 nM. Turning to `COc1cc2c(cc1Nc1ncc3cnn(C[C@@H]4CCC(C)(C)N4C(C)=O)c3n1)CN(C)CC2` [Example 176, 1-[(5S)-5-[[6-[(6-methoxy-2-methyl-3,4-dihydro-1H-isoquinolin-7-yl)amino]pyrazolo[3,4-d]pyrimidin-1-yl]ymethyl]-2,2-dimethyl-pyrrolidin-1-yl]ethenone], the IC50 was below 100 nM. Consider `COc1cc2c(cc1Nc1ncc3cnn([C@H]4CCCC[C@@H]4C)c3n1)CN(C)CC2` (racemic) [Example 30, rac-6-methoxy-2-methyl-N-(1-((1S,2S)-2-methylcyclohexyl)-1H-pyrazolo[3,4-d]pyrimidin-6-yl)-1,2,3,4-tetrahydroisoquinolin-7-amine], for which the IC50 was 100 to 250 nM. Consider `COc1cc2c(cc1Nc1ncc3cnn(C[C@@H]4CCC[C@H]4C(=O)O)c3n1)CN(C)CC2` [Example 157, (1R,2R)-2-[[6-[(6-methoxy-2-methyl-3,4-dihydro-1H-isoquinolin-7-yl)amino]pyrazolo[3,4-d]pyrimidin-1-yl]methyl]cyclopentanecarboxylic Acid], for which the IC50 is below 100 nM. As to `COc1nc2c(cc1Nc1ncc3cnn(C[C@@H]4CC[C@@H](C)N4C(C)=O)c3n1)CN(C)CC2` [Example 173, 1-[(2S,5R)-2-[[6-[(2-methoxy-6-methyl-7,8-dihydro-5H-1,6-naphthyridin-3-yl)amino]pyrazolo[3,4-d]pyrimidin-1-yl]methyl]-5-methyl-pyrrolidin-1-yl]ethenone Methanesulfonic Acid], the IC50 is below 100 nM. Turning to `CN1CCc2ccc(Nc3ncc4cnn(C5CCCOC5)c4n3)cc2C1` (centres unmarked) [Example 15, 2-methyl-N-(1-(tetrahydro-2H-pyran-3-yl)-1H-pyrazolo[3,4-d]pyrimidin-6-yl)-1,2,3,4-tetrahydroisoquinolin-7-amine], the IC50 was below 100 nM.

Take `COc1cc2c(cc1Nc1ncc3cnn(C4CCN(C(C)=O)CC4)c3n1)CN(C)CC2` [Example 106, 1-(4-(6-((6-methoxy-2-methyl-1,2,3,4-tetrahydroisoquinolin-7-yl)amino)-1H-pyrazolo[3,4-d]pyrimidin-1-yl)piperidin-1-yl)ethan-1-one trifluoroacetate]: the IC50 was below 100 nM.

`COc1cc2c(cc1Nc1ncc3c(C)nn([C@H]4CC[C@@H](CO)CC4)c3n1)CN(C)CC2` [Example 78, cis-[4-[6-[(6-methoxy-2-methyl-3,4-dihydro-1H-isoquinolin-7-yl)amino]-3-methyl-pyrazolo[3,4-d]pyrimidin-1-yl]cyclohexyl]methanol]: the IC50 is below 100 nM. On to `COc1cc2c(cc1Nc1ncc3cnn(C[C@@H]4CCCN4C(C)=O)c3n1)C(C)(C)N(C)CC2` [Example 178, (S)-1-(2-((6-((6-methoxy-1,1,2-trimethyl-1,2,3,4-tetrahydroisoquinolin-7-yl)amino)-1H-pyrazolo[3,4-d]pyrimidin-1-yl)methyl)pyrrolidin-1-yl)ethan-1-one], for which the IC50 was below 100 nM. For the compound `COC(=O)N[C@H](C)Cn1ncc2cnc(Nc3cc4c(cc3OC)CCN(C)C4)nc21` [Example 98, methyl N-[(1R)-2-[6-[(6-methoxy-2-methyl-3,4-dihydro-1H-isoquinolin-7-yl)amino]pyrazolo[3,4-d]pyrimidin-1-yl]-1-methyl-ethyl]carbamate], the IC50 lay within 100 to 250 nM.

As for `COc1cc2c(cc1Nc1ncc3cnn(CCCO)c3n1)CN(C)CC2` [Example 96, 3-[6-[(6-methoxy-2-methyl-3,4-dihydro-1H-isoquinolin-7-yl)amino]pyrazolo[3,4-d]pyrimidin-1-yl]propan-1-ol], the IC50 was below 100 nM. Consider `COc1cc2c(cc1Nc1ncc3cnn(CC[C@@H](C)O)c3n1)CN(C)CC2` [Example 83, (2R)-4-[6-[(6-methoxy-2-methyl-3,4-dihydro-1H-isoquinolin-7-yl)amino]pyrazolo[3,4-d]pyrimidin-1-yl]butan-2-ol], for which the IC50 is below 100 nM. As to `CO[C@H]1CC[C@@H](n2ncc3cnc(Nc4ccc5c(c4)CN(C)CC5)nc32)CC1` [Example 36, N-(1-((cis)-4-methoxycyclohexyl)-1H-pyrazolo[3,4-d]pyrimidin-6-yl)-2-methyl-1,2,3,4-tetrahydroisoquinolin-7-amine], the IC50 was below 100 nM. Regarding `COc1cc2c(cc1Nc1ncc3cnn(CCNC(C)=O)c3n1)CN(C)CC2` [Example 87, N-[2-[6-[(6-methoxy-2-methyl-3,4-dihydro-1H-isoquinolin-7-yl)amino]pyrazolo[3,4-d]pyrimidin-1-yl]ethyl]acetamide], the IC50 is below 100 nM. Take `COc1cc2c(cc1Nc1ncc3cnn([C@H]4C[C@H](CNC(C)=O)C4)c3n1)CN(C)CC2` [Example 122, N-((trans-3-(6-((6-methoxy-2-methyl-1,2,3,4-tetrahydroisoquinolin-7-yl)amino)-1H-pyrazolo[3,4-d]pyrimidin-1-yl)cyclobutyl)methyl)acetamide 2,2,2-trifluoroacetate]: the IC50 was below 100 nM. On to `COc1cc2c(cc1Nc1ncc3cnn(CCN(C)S(C)(=O)=O)c3n1)CN(C)CC2` [Example 92, N-[2-[6-[(6-methoxy-2-methyl-3,4-dihydro-1H-isoquinolin-7-yl)amino]pyrazolo[3,4-d]pyrimidin-1-yl]ethyl]-N-methyl-methanesulfonamide], for which the IC50 lay in the range of 100 to 250 nM. Regarding `COc1cc2c(cc1Nc1ncc3cnn([C@H]4CC[C@H](O)CC4)c3n1)CNCC2` [Example 152, trans-4-(6-((6-methoxy-1,2,3,4-tetrahydroisoquinolin-7-yl)amino)-1H-pyrazolo[3,4-d]pyrimidin-1-yl)cyclohexan-1-ol], the IC50 is below 100 nM. In the case of `CC(C)n1nc(C(F)(F)F)c2cnc(Nc3ccc4c(c3)CN(C)CC4)nc21` [Example 6, N-[1-isopropyl-3-(trifluoromethyl)pyrazolo[3,4-d]pyrimidin-6-yl]-2-methyl-3,4-dihydro-1H-isoquinolin-7-amine], the IC50 is below 100 nM. To `COc1cc2c(cc1Nc1ncc3cnn(C[C@@H]4C[C@H](F)CN4C(C)=O)c3n1)CN(CCO)CC2` [Example 222, 1-((2S,4S)-4-fluoro-2-((6-((2-(2-hydroxyethyl)-6-methoxy-1,2,3,4-tetrahydroisoquinolin-7-yl)amino)-1H-pyrazolo[3,4-d]pyrimidin-1-yl)methyl)pyrrolidin-1-yl)ethan-1-one] belongs below 100 nM. For `COc1cc2c(cc1Nc1ncc3cnn([C@H]4CC[C@H](CO)C4)c3n1)CN(C)CC2` (racemic) [Example 48, rac-(trans-3-(6-((6-methoxy-2-methyl-1,2,3,4-tetrahydroisoquinolin-7-yl)amino)-1H-pyrazolo[3,4-d]pyrimidin-1-yl)cyclopentyl)methanol], the IC50 was below 100 nM. With `COc1cc2c(cc1Nc1ncc3cnn([C@H]4CC[C@H](NC(C)=O)CC4)c3n1)CN(C)CC2` [Example 69, trans-N-[4-[6-[(6-methoxy-2-methyl-3,4-dihydro-1H-isoquinolin-7-yl)amino]pyrazolo[3,4-d]pyrimidin-1-yl]cyclohexyl]acetamide], the IC50 was below 100 nM. Consider `COc1cc2c(cc1Nc1ncc3cnn(C[C@@H]4[C@@H](C)[C@H](O)CN4C(C)=O)c3n1)CN(C)CC2` [Example 164, 1-[(2S,3R,4R)-4-hydroxy-2-[[6-[(6-methoxy-2-methyl-3,4-dihydro-1H-isoquinolin-7-yl)amino]pyrazolo[3,4-d]pyrimidin-1-yl]methyl]-3-methyl-pyrrolidin-1-yl]ethenone], for which the IC50 was below 100 nM.

Source of the values: US11918582B2 (RAPT Therapeutics, Inc., priority 2021, dated 2024).
